By pIC50 is commonly meant the negative decadic logarithm of the IC50, by convention in mol/L. In general, MIC refers to the least concentration at which growth counts as inhibited.

This note sets out measurements from ChEMBL document CHEMBL2146428, “Luminmycins A-C, cryptic natural products from Photorhabdus luminescens identified by heterologous expression in Escherichia coli” (J Nat Prod, 2012).

Test [1] concerns HCT-116. As to the kind of experiment: Cytotoxicity against human HCT116 cells assessed as cell viability after 5 days by MTT assay relative to control. It is filed as functional, cell-based. To be noted: HCT-116, 120 h. Background: Formazan colour is commonly taken as a measure of viable cells.
Another test deals with Candida albicans. As to the kind of experiment: Antifungal activity against Candida albicans after 16 hrs by serial dilution method. The class given is functional.
In test [2] the test system is HCT-116. Briefly: Cytotoxicity against human HCT116 cells assessed as cell viability at 100 ug/mL after 5 days by MTT assay relative to control. It is filed as functional, cell-based.

pIC50: −log10 of the molar value. ≈ marks a conversion by molar mass, not a printed value. Calls of active or inactive are those of the source. The calls are words filed in the database; no cut-off is given here.

As for `CCCCCCC/C=C/C=C/C(=O)N[C@H](C(=O)N[C@H]1CCCCNC(=O)/C=C/[C@H](C)NC1=O)[C@@H](C)O` [LUMINMYCIN A], in the test on HCT-116 [1], the negative-log IC50 (pIC50) was 7.04. Also, the outcome with Candida albicans was inactive.

On to `CCCCCCC/C=C/C=C/C(=O)N[C@H](C(=O)N[C@@H](CCCCN)C(=O)N[C@@H](C)C(O)CC(=O)O)[C@@H](C)O` (stereo partly specified), for which the result with Candida albicans and in the test with HCT-116 [2] was inactive.

Consider `CCCCCCC/C=C/C=C/C(=O)N[C@H](C(=O)N[C@H]1C[C@@H](O)CCNC(=O)/C=C/[C@H](C)NC1=O)[C@@H](C)O` [GLIDOBACTIN A], for which the negative logarithm of the IC50 (pIC50) in the test with HCT-116 [1] was 7.48. This compound also returned an MIC against Candida albicans of 2 µg/mL (≈ 3.84 µM).
